The source of these data is PMC5408263, “Four Aromatic Sulfates with an Inhibitory Effect against HCV NS3 Helicase from the Crinoid Alloeocomatella polycladia” (Marine Drugs, 2017).

Data set [1] concerns the target T1, HCV NS3 helicase (Hepatitis C virus genotype 1a, UniProt P27958).
T1 construct: HCV NS3 protein with helicase activity was expressed and purified as previously described; made in house
As to the kind of experiment: fluorescence helicase assay based on FRET. As to conditions: dsRNA substrate labeled with Alexa Fluor 700 and Black Hole Quencher 3; 240 nM NS3 helicase; 30 min at 37 °C; triplicate; read-out: IC50 against NS3 helicase. It is filed as biochemical. The procedure:
For enzymatic inhibition, we used the fluorescence helicase assay based on fluorescence resonance energy transfer (FRET) to examine NS3 helicase inhibition by Compounds 1–4. […] The measured values in triplicate for each concentration of Compounds 1–4 were averaged and divided by the mean value from the negative control sample that contains DMSO instead of Compounds 1–4 to show the NS3 helicase activity as a percentage.
The fluorescence helicase assay based on FRET was conducted as we previously described, except that we used a DNA capture strand rather than an RNA capture strand for which the sequence was complementary to that of the quencher strand. HCV NS3 protein with helicase activity was expressed and purified as previously described. In the assay, when NS3 helicase unwinds the dsRNA substrate, the DNA capture strand binds to the unwound single-stranded RNA (ssRNA) substrate labeled with Black Hole Quencher 3 and prevents the ssRNA substrate from reannealing to the complementary ssRNA substrate labeled with Alexa Fluor 700. […] Thus, the NS3 helicase activity can be monitored by the real-time measurement of the fluorescence intensity of Alexa Fluor 700 through 30 min incubation at 37 °C by using a SpectraMax Gemini XS microplate reader (Molecular Devices, Sunnyvale, CA, USA). The reaction mixture contained 25 mM MOPS-NaOH (pH 6.5), 3 mM MgCl2, 2 mM dithiothreitol, 4 U RNasin (Promega, Madison, WI, USA), 50 nM dsRNA substrate, 400 nM DNA capture strand, 5 mM ATP, a serial dilution of Compounds 1–4 dissolved in DMSO, and 240 nM NS3 helicase in a total reaction volume of 20 μL. The NS3 helicase activity was calculated as the initial reaction velocity relative to that of the control (in the absence of Compounds 1–4 but in the presence of DMSO). The IC50 value was calculated using KaleidaGraph (Synergy Software, Reading, PA, USA) by fitting plots of relative helicase activity (%) vs. [I] using Equation (1):(1) % Activity = 100/1 + ([I]/IC50)^h where h is the Hill coefficient, and [I] is the inhibitor concentration.

For data set [2], the system named is HCV subgenomic replicon cell line Huh7/Rep-Feo (genotype 1b, N strain). Description: HCV replicon assay (luciferase). The data set is classed as cell-based. As to conditions: Hepatitis C virus, Huh-7, 72 h post-treatment, luciferase activity, read-out: EC50 (50% effective concentration), suppression of HCV replication. The procedure: (§1) Further, we investigated the effect of Compounds 2 and 3 on both viral replication and cell growth in the HCV subgenomic replicon cell line Huh7/Rep-Feo (genotype 1b, N strain). […] This was likely due to its low membrane permeability caused by the negatively charged sulfate group within the molecule in aqueous solution.
The Huh7/Rep-Feo cell line harboring the subgenomic replicon RNA of the N strain (genotype 1b) was seeded at 2 × 10^4 cells per well in a 48-well plate and incubated at 37 °C for 24 h. A serial dilution of Compounds 2 and 3 was added to each well of the plate. The treated cells were harvested 72 h post-treatment and lysed in cell culture lysis reagent (Promega, Madison, WI, USA). Luciferase activity in the harvested cells was estimated with a luciferase assay system (Promega). The resulting luminescence was detected by a Luminescencer-JNR AB-2100 (ATTO, Tokyo, Japan). The anti-HCV activity was calculated as the intensity of the luminescence relative to that of the control (in the absence of Compounds 2 and 3 but in the presence of DMSO).

A short description of data set [3]: Cytotoxicity assay (MTS). As to conditions: human, Huh7/Rep-Feo cells, 72 h post-treatment, read-out: CC50 (50% cytotoxicity concentration). It is filed as cell-based. The procedure: as §1
Huh7/Rep-Feo cells were seeded at a density of 1 × 10^4 cells per well in a 96-well plate and then incubated at 37 °C for 24 h. Compounds 2 and 3 were added to the culture medium to yield various concentrations and were then harvested 72 h post-treatment. Cell viability was determined by a dimethyl thiazolcarboxymethoxyphenyl sulfophenyltetrazolium (MTS) assay using a CellTiter 96 aqueous one-solution cell proliferation assay kit (Promega), according to the manufacturer’s protocol.

For data set [4], the system named is hepatitis C virus (HCV) NS3 helicase. As to conditions: authentic molecule; read-out: IC50 against NS3 helicase; cited from earlier work.

Counter-ions that a name gives are not always drawn.

T1 sequence (P27958 1027-1657): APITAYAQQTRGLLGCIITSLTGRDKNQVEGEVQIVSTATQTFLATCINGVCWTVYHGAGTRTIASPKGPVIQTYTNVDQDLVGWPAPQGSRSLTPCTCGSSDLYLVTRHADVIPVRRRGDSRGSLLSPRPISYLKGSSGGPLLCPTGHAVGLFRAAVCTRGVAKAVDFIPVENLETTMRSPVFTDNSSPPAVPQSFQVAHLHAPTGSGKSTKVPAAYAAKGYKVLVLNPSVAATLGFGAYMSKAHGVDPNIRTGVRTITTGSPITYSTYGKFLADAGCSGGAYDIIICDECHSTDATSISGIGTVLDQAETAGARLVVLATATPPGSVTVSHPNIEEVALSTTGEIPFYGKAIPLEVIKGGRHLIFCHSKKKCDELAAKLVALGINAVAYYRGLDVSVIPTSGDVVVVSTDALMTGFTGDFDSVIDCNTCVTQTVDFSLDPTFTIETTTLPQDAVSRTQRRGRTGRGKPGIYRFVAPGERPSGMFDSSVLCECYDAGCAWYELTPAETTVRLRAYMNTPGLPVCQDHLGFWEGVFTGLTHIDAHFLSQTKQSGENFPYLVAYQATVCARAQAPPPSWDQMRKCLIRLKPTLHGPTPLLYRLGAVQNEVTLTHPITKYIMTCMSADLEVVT

With `Cc1cc(O)c2c(=O)c3c(O)cc(OS(=O)(=O)O)cc3cc-2o1` [Compound 1], the IC50 (usually the concentration that inhibits the measured activity by half) in data set [1] was 71 µM. As to `CCCc1cc(O)c2c(=O)c3c(O)cc(OS(=O)(=O)O)cc3cc-2o1` [Compound 2], the half-maximal inhibitory concentration (IC50) in data set [1] is 95 µM. Besides, the EC50 in data set [2] turned out to be 57 µM. Moreover, in data set [3], the CC50 at 72 h came to 52 µM. The corresponding values for `Cc1cc(O)c2c(=O)c3c(O)c(-c4c(OS(=O)(=O)O)cc(O)c5c(=O)c6c(O)cc(C)oc-6cc45)c(OS(=O)(=O)O)cc3cc-2o1` [Compound 3] are 7 µM, 67 µM and 70 µM.

As to `CCCc1cc(O)c2c(=O)c3c(O)c(-c4c(OS(=O)(=O)O)cc(O)c5c(=O)c6c(O)cc(C)oc-6cc45)c(OS(=O)(=O)O)cc3cc-2o1` [Compound 4], the 50% inhibitory concentration (IC50) in data set [1] is 5 µM.

With `CC(C)CCC[C@@H](C)[C@H]1CC[C@H]2[C@@H]3CC=C4C[C@@H](OS(=O)(=O)O)CC[C@]4(C)[C@H]3CC[C@]12C` [cholesterol sulfate], the IC50 in data set [4] was 1.7 ± 0.2 µM.
